The values that follow come from article PMC6197257 (Scientific Reports, 2018).

Read-outs that look alike come from different tables or passages of the source.

Series [1] in a line: concentrations in pooled plasma of EHBRs 12 h after oral GA (200 mg/kg). The class given is in vivo. The settings on record: Eisai Hyperbilirubinemia rats (EHBR), rat. The method, then: Three female and three male EHBRs (9-week-old, respectively) were injected with urethane (1 g/kg, i.p.), and orally treated with an aqueous GA aqueous suspension (200 mg/kg in 1% CMC). Twelve h after the treatment, blood was collected from the abdominal vena cava, and the plasma samples of each sex rat were pooled.
LC-ESI(+)MS/MS analysis was conducted at the following conditions: column, Scherzo SM-C18 (3 μm, 3 mm i.d. ×100 mm, Imtakt, Kyoto, Japan); mobile phase, (A) 5 mM AcNH4, (B) 125 mM AcNH4/acetonitrole 1:4, at a flow rate of 0.3 ml/min, with the following gradient profile: A:B = 50:50–0:100 (0–3 min) and 0:100 (3–10 min); compound 1 (5.8 min), astragaloside IV (3.0 min), GA (8.7 min); the transitions monitored were the same as described in the previous section. Linear regressions over the concentration range 0.08–2 µM for compound 1 and 3.2 nM–2 µM for GA were examined using the peak-area ratio of the compounds to their internal standards and the least-squares method (r^2 > 0.98).

The test system of the next series is rat kidney slices. Put plainly: uptake by rat kidney slices. The class given is in vitro ADME. The following applies: pooled plasma of female EHBRs, pH 5.5, 2 h. How it is done: Female SD rats (9-week-old) were treated with urethane (1 g/kg, i.p.), and their kidneys were collected. After removal of the capsule, the kidneys were sliced at approximately 0.5-mm thickness in the frontal section of the organ, using a tissue slicer (Natsume Seisakusyo, Tokyo, Japan) and then cut at the renal hilus into two halves. The slices were pre-incubated at either 4 or 37 °C for 15 min in 24-well plates with 0.3 ml of the incubation medium (137 mM NaCl, 5.4 mM KCl, 0.95 mM CaCl2, 0.81 mM MgSO4, 0.44 mM KH2PO4, 0.25 mM Na2HPO4, 5.5 mM glucose, 10 mM MES, adjusted to pH 5.5). Five ml of pooled female EHBR plasma samples was lyophilized, and dissolved in 5 ml of the incubation medium. […] After washing with PBS three times, the kidney slices were homogenated in PBS using sonication, and the concentrations of protein were measured as mentioned above. […]
LC-ESI(+)MS/MS analysis was conducted at the following conditions: column, Scherzo SM-C18 (3 μm, 3 mm i.d. ×100 mm, Imtakt, Kyoto, Japan); mobile phase, (A) 5 mM AcNH4, (B) 125 mM AcNH4/acetonitrole 1:4, at a flow rate of 0.3 ml/min, with the following gradient profile: A:B = 50:50–0:100 (0–3 min) and 0:100 (3–10 min); compound 1 (5.8 min), astragaloside IV (3.0 min), GA (8.7 min); the transitions monitored were the same as described in the previous section. […]

The target in a further series is T1, OAT1 (Homo sapiens, UniProt Q4U2R8).
T1 construct: expressed in transfected cells
T1 sequence (Q4U2R8 1-563): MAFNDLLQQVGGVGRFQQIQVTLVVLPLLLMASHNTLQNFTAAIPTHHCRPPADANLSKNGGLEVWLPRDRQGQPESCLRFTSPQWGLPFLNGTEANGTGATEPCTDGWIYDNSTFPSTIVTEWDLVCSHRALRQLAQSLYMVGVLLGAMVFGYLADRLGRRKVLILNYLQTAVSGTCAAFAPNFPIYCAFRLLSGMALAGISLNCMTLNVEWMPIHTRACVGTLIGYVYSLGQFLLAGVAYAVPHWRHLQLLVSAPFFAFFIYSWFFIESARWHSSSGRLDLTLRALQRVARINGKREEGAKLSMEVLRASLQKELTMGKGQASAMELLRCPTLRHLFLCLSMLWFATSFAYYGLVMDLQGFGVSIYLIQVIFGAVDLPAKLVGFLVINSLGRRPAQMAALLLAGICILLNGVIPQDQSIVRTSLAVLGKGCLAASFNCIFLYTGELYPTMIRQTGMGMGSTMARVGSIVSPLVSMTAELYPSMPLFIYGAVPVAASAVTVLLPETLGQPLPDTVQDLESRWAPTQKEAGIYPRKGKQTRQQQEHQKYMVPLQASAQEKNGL
Put plainly: uptake by MDCK II cells stably expressing OAT1. The class given is in vitro ADME. The settings on record: pooled plasma of male EHBRs (79 µM compound 1), pH 5.5, 37 °C, 15 min. How it is done:
MDCKII cells were cultured in Dulbecco’s modified Eagle’s medium containing 10% FBS, 100 U/ml penicillin, and 100 µg/ml streptomycin at 37 °C in 5% CO2. Plasmids carrying the cDNAs encoding human organic anion transporter (OAT) 1 and 3 were prepared using the pCI-neo mammalian expression vector, as described previously. Using the plasmids, MDCKII cells stably expressing OAT1 and 3 were prepared as described previously, and tested for their functional expressions by evaluating the transports of [^3H]p-aminohippurate and [^3H]estrone sulfate, respectively, as probe substrates.
For the transport assay, the cells were seeded in 24-well plates (1 × 10^5 cells/well), and incubated for 24 h. The cells were pre-incubated for 15 min at 37 °C with 0.25 ml of the incubation medium described above. Two ml of pooled female or male EHBR plasma samples was lyophilized, and dissolved in 2 ml of 10 mM MES (pH 5.5). The cells were then incubated further at 37 °C for 15 min with 0.1 ml of pooled female or male EHBR plasma samples. The surface of the cells was washed 3 times with 0.5 ml of ice-cold PBS, and then the contents were extracted with 0.2 ml of ethanol. The cell residues were dissolved by 0.1 ml of 1 M NaOH, and after neutralization by adding 0.1 ml of 1 M HCl, the concentrations of protein were measured as mentioned above.

Take `CC1(C(=O)OC2OC(C(=O)O)C(O)C(O)C2O)CC(O)C2(C)CCC3(C)C(=CC(=O)C4C5(C)CCC(OS(=O)(=O)O)C(C)(C)C5CCC43C)C2C1` (stereo not drawn) [Compound 1, 22α-hydroxy-18β-glycyrrhetyl-3-O-sulfate-30-glucuronide]: the concentration at 12 h in series [1] (female, read-out: concentration in pooled plasma, female EHBRs) stood at 15 µM; in series [1] (male, read-out: concentration in pooled plasma, male EHBRs), 79 µM. Further, the “uptake by kidney slices at 37 °C compared with 4 °C” value in the series with rat kidney slices is reported as “significantly higher”. The “uptake by cells expressing OAT1 compared with mock cells” value on OAT1 is listed as “higher than that by mock cells”.
